Active and inactive are the calls of the source. The rule behind the calls is not given here.
How the values were obtained:
HEK293 = experiment: Selectivity ratio of EC50 for human GLP1R expressed in HEK293 cells to EC50 for human GLP2R expressed in HEK293; type: cell-based
[1] = molecular target: Glucagon-like peptide 1 receptor (Homo sapiens, UniProt P43220); experiment: Agonist activity at human GLP1R expressed in HEK293 cells after 5 hrs by luciferase reporter gene assay; type: cell-based
[2] = molecular target: T1, Glucagon-like peptide 2 receptor (Homo sapiens, UniProt O95838); experiment: Agonist activity at human GLP2R expressed in HEK293 cells after 5 hrs by luciferase reporter gene assay; type: cell-based
T1 sequence (O95838 whole entry): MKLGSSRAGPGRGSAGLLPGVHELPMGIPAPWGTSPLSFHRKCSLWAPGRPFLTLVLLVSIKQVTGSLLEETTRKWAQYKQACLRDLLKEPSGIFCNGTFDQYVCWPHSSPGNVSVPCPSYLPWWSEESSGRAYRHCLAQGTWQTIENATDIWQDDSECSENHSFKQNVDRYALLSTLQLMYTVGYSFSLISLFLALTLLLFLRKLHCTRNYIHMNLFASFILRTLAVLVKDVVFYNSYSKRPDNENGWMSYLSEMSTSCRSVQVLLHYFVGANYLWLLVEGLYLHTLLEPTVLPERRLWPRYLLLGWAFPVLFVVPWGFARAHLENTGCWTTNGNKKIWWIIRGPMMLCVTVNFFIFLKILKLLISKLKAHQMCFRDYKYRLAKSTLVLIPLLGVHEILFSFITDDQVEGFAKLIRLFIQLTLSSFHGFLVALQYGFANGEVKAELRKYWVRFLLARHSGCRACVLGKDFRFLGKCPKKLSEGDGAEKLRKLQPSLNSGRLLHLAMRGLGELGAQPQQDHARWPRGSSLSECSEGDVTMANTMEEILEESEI

[3] = molecular target: T2, Glucagon-like peptide 2 receptor (Homo sapiens) (UniProt O95838); experiment: Potency index, ratio of compound EC50 to compound 2 EC50 for human GLP2R expressed in HEK293 cells; type: cell-based
T2 sequence (whole entry): T1 sequence (O95838 whole entry)

[4] = Systemic clearance in Sprague-Dawley rat at 0.2 mg/kg, iv through cassette dosing measured up to 300 mins by LC/MS/MS analysis; type: ADME, organism-based; details: in vivo
[5] = molecular target: Glucagon receptor (Homo sapiens) (UniProt P47871); experiment: Agonist activity at human GCGR expressed in HEK293 cells after 5 hrs by luciferase reporter gene assay; type: cell-based
Chain of Glucagon receptor (Homo sapiens) (P47871 whole entry): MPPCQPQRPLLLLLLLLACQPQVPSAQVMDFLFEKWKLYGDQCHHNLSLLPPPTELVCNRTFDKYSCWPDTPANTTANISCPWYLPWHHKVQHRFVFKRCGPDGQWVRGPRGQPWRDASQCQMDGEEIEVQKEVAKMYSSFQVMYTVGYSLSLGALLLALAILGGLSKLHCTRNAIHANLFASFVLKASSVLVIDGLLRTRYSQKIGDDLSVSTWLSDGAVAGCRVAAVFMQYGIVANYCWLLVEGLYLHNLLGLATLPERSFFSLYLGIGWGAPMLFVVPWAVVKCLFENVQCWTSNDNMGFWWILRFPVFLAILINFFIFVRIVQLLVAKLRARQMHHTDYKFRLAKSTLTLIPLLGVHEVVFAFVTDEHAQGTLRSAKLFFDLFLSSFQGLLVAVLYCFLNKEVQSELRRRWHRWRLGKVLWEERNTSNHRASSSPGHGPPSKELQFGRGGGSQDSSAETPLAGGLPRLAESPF

Chain of Glucagon-like peptide 1 receptor (P43220 whole entry): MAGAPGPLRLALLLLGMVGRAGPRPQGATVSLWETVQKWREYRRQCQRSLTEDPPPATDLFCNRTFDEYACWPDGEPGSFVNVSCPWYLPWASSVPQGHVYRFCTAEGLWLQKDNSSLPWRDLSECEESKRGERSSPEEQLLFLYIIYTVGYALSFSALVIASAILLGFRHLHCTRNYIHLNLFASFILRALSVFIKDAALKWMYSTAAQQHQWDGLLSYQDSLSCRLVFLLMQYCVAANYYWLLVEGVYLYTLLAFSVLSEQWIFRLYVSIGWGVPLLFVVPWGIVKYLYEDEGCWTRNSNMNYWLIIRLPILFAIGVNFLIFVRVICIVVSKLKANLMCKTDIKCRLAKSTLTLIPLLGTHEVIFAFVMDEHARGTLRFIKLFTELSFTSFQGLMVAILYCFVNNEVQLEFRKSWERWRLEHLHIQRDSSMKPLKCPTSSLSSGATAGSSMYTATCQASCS

Compound	Ratio EC50 (HEK293)	EC50 [1]	EC50 [2]	Ratio EC50 [3]	clearance [4]	Activity [5]
H-HGDGSFSDEMNTILDNLAARDFINWLIQTK-NH2	> 4500	> 1000 nM	0.22 nM	2.4	20 mL/min/kg	–
CCCCC(NC(=O)[C@H](CCC(=O)O)NC(=O)[C@H](CC(=O)O)NC(=O)[C@H](CO)NC(=O)[C@H](Cc1ccccc1)NC(=O)[C@H](CO)NC(=O)CNC(=O)[C@H](CC(=O)O)NC(=O)CNC(=O)[C@@H](N)Cc1cnc[nH]1)C(=O)N[C@@H](CC(N)=O)C(=O)N[C@H](C(=O)N[C@H](C(=O)N[C@H](CC(C)C)C(=O)N[C@@H](CC(=O)O)C(=O)N[C@@H](CC(N)=O)C(=O)N[C@@H](CC(C)C)C(=O)N[C@@H](C)C(=O)N[C@@H](C)C(=O)N[C@@H](CCCNC(=N)N)C(=O)N[C@@H](CC(=O)O)C(=O)N[C@@H](Cc1ccccc1)C(=O)N[C@H](C(=O)N[C@@H](CC(N)=O)C(=O)N[C@@H](Cc1c[nH]c2ccccc12)C(=O)N[C@@H](CC(C)C)C(=O)N[C@H](C(=O)N[C@@H](CCC(N)=O)C(=O)N[C@H](C(=O)N[C@@H](CCCCN)C(N)=O)[C@@H](C)O)[C@@H](C)CC)[C@@H](C)CC)[C@@H](C)CC)[C@@H](C)O (stereo not given in full)	> 110	> 1000 nM	8.9 nM	40	–	inactive
CCCCC(NC(=O)[C@@H](CCC(=O)O)NC(=O)[C@H](CC(=O)O)NC(=O)[C@H](CO)NC(=O)[C@H](Cc1ccccc1)NC(=O)[C@H](CO)NC(=O)CNC(=O)[C@H](CC(=O)O)NC(=O)CNC(=O)[C@@H](N)Cc1cnc[nH]1)C(=O)N[C@@H](CC(N)=O)C(=O)N[C@H](C(=O)N[C@H](C(=O)N[C@@H](CC(C)C)C(=O)N[C@@H](CC(=O)O)C(=O)N[C@@H](CC(N)=O)C(=O)N[C@@H](CC(C)C)C(=O)N[C@@H](C)C(=O)N[C@@H](C)C(=O)N[C@@H](CCCNC(=N)N)C(=O)N[C@@H](CC(=O)O)C(=O)N[C@@H](Cc1ccccc1)C(=O)N[C@H](C(=O)N[C@@H](CC(N)=O)C(=O)N[C@@H](Cc1c[nH]c2ccccc12)C(=O)N[C@@H](CC(C)C)C(=O)N[C@H](C(=O)N[C@@H](CCC(N)=O)C(=O)N[C@H](C(=O)N[C@@H](CCCCN)C(N)=O)[C@@H](C)O)[C@@H](C)CC)[C@@H](C)CC)[C@@H](C)CC)[C@@H](C)O (stereo not given in full)	> 140	> 1000 nM	7.1 nM	32	–	inactive
CCCC[C@@H](NC(=O)[C@H](CCC(=O)O)NC(=O)[C@H](CC(=O)O)NC(=O)[C@H](CO)NC(=O)[C@H](Cc1ccccc1)NC(=O)[C@H](CO)NC(=O)CNC(=O)[C@H](CC(=O)O)NC(=O)CNC(=O)[C@@H](N)Cc1cnc[nH]1)C(=O)N[C@@H](CC(N)=O)C(=O)N[C@H](C(=O)N[C@H](C(=O)N[C@@H](CC(C)C)C(=O)N[C@@H](CC(=O)O)C(=O)N[C@@H](CC(N)=O)C(=O)N[C@@H](CC(C)C)C(=O)N[C@@H](C)C(=O)N[C@@H](C)C(=O)N[C@@H](CCCNC(=N)N)C(=O)N[C@@H](CC(=O)O)C(=O)N[C@@H](Cc1ccccc1)C(=O)N[C@H](C(=O)N[C@@H](CC(N)=O)C(=O)N[C@@H](Cc1c[nH]c2ccccc12)C(=O)N[C@@H](CC(C)C)C(=O)N[C@H](C(=O)N[C@@H](CCC(N)=O)C(=O)N[C@H](C(=O)N[C@@H](CCCCN)C(N)=O)[C@@H](C)O)[C@@H](C)CC)[C@@H](C)CC)[C@@H](C)CC)[C@@H](C)O	> 4300	> 1000 nM	0.23 nM	1	–	inactive
CCCCC(NC(=O)[C@H](CCC(=O)O)NC(=O)[C@H](CC(=O)O)NC(=O)[C@H](CO)NC(=O)[C@H](Cc1ccccc1)NC(=O)[C@H](CO)NC(=O)CNC(=O)[C@H](CC(=O)O)NC(=O)CNC(=O)[C@@H](N)Cc1cnc[nH]1)C(=O)N[C@@H](CC(N)=O)C(=O)N[C@H](C(=O)N[C@H](C(=O)N[C@@H](CC(C)C)C(=O)N[C@@H](CC(=O)O)C(=O)N[C@H](CC(N)=O)C(=O)N[C@@H](CC(C)C)C(=O)N[C@@H](C)C(=O)N[C@@H](C)C(=O)N[C@@H](CCCNC(=N)N)C(=O)N[C@@H](CC(=O)O)C(=O)N[C@@H](Cc1ccccc1)C(=O)N[C@H](C(=O)N[C@@H](CC(N)=O)C(=O)N[C@@H](Cc1c[nH]c2ccccc12)C(=O)N[C@@H](CC(C)C)C(=O)N[C@H](C(=O)N[C@@H](CCC(N)=O)C(=O)N[C@H](C(=O)N[C@@H](CCCCN)C(N)=O)[C@@H](C)O)[C@@H](C)CC)[C@@H](C)CC)[C@@H](C)CC)[C@@H](C)O (stereo not given in full)	> 660	> 1000 nM	1.5 nM	6.8	–	inactive
CCCCC(NC(=O)[C@H](CCC(=O)O)NC(=O)[C@H](CC(=O)O)NC(=O)[C@H](CO)NC(=O)[C@H](Cc1ccccc1)NC(=O)[C@@H](CO)NC(=O)CNC(=O)[C@H](CC(=O)O)NC(=O)CNC(=O)[C@@H](N)Cc1cnc[nH]1)C(=O)N[C@@H](CC(N)=O)C(=O)N[C@H](C(=O)N[C@H](C(=O)N[C@@H](CC(C)C)C(=O)N[C@@H](CC(=O)O)C(=O)N[C@@H](CC(N)=O)C(=O)N[C@@H](CC(C)C)C(=O)N[C@@H](C)C(=O)N[C@@H](C)C(=O)N[C@@H](CCCNC(=N)N)C(=O)N[C@@H](CC(=O)O)C(=O)N[C@@H](Cc1ccccc1)C(=O)N[C@H](C(=O)N[C@@H](CC(N)=O)C(=O)N[C@@H](Cc1c[nH]c2ccccc12)C(=O)N[C@@H](CC(C)C)C(=O)N[C@H](C(=O)N[C@@H](CCC(N)=O)C(=O)N[C@H](C(=O)N[C@@H](CCCCN)C(N)=O)[C@@H](C)O)[C@@H](C)CC)[C@@H](C)CC)[C@@H](C)CC)[C@@H](C)O (stereo not given in full)	> 120	> 1000 nM	8.1 nM	37	–	inactive
CCCCC(NC(=O)[C@H](CCC(=O)O)NC(=O)[C@H](CC(=O)O)NC(=O)[C@H](CO)NC(=O)[C@H](Cc1ccccc1)NC(=O)[C@H](CO)NC(=O)CNC(=O)[C@H](CC(=O)O)NC(=O)CNC(=O)[C@@H](N)Cc1cnc[nH]1)C(=O)N[C@@H](CC(N)=O)C(=O)N[C@H](C(=O)N[C@H](C(=O)N[C@@H](CC(C)C)C(=O)N[C@@H](CC(=O)O)C(=O)N[C@@H](CC(N)=O)C(=O)N[C@@H](CC(C)C)C(=O)N[C@@H](C)C(=O)N[C@@H](C)C(=O)N[C@@H](CCCNC(=N)N)C(=O)N[C@@H](CC(=O)O)C(=O)N[C@@H](Cc1ccccc1)C(=O)N[C@H](C(=O)N[C@@H](CC(N)=O)C(=O)N[C@@H](Cc1c[nH]c2ccccc12)C(=O)N[C@@H](CC(C)C)C(=O)N[C@H](C(=O)N[C@@H](CCC(N)=O)C(=O)N[C@H](C(=O)N[C@H](CCCCN)C(N)=O)[C@@H](C)O)[C@@H](C)CC)[C@@H](C)CC)[C@@H](C)CC)[C@@H](C)O (stereo not given in full)	> 2600	> 1000 nM	0.38 nM	1.7	–	inactive
CCCCC(NC(=O)[C@H](CCC(=O)O)NC(=O)[C@H](CC(=O)O)NC(=O)[C@H](CO)NC(=O)[C@H](Cc1ccccc1)NC(=O)[C@H](CO)NC(=O)CNC(=O)[C@H](CC(=O)O)NC(=O)CNC(=O)[C@@H](N)Cc1cnc[nH]1)C(=O)N[C@@H](CC(N)=O)C(=O)N[C@H](C(=O)N[C@H](C(=O)N[C@@H](CC(C)C)C(=O)N[C@@H](CC(=O)O)C(=O)N[C@@H](CC(N)=O)C(=O)N[C@@H](CC(C)C)C(=O)N[C@@H](C)C(=O)N[C@@H](C)C(=O)N[C@@H](CCCNC(=N)N)C(=O)N[C@@H](CC(=O)O)C(=O)N[C@@H](Cc1ccccc1)C(=O)N[C@H](C(=O)N[C@@H](CC(N)=O)C(=O)N[C@@H](Cc1c[nH]c2ccccc12)C(=O)N[C@@H](CC(C)C)C(=O)N[C@H](C(=O)N[C@@H](CCC(N)=O)C(=O)N[C@@H](C(=O)N[C@@H](CCCCN)C(N)=O)[C@H](C)O)[C@@H](C)CC)[C@@H](C)CC)[C@@H](C)CC)[C@@H](C)O (stereo not given in full)	> 220	> 1000 nM	4.5 nM	20	–	inactive
CCCCC(NC(=O)[C@H](CCC(=O)O)NC(=O)[C@H](CC(=O)O)NC(=O)[C@H](CO)NC(=O)[C@H](Cc1ccccc1)NC(=O)[C@H](CO)NC(=O)CNC(=O)[C@H](CC(=O)O)NC(=O)CNC(=O)[C@@H](N)Cc1cnc[nH]1)C(=O)N[C@@H](CC(N)=O)C(=O)N[C@H](C(=O)N[C@H](C(=O)N[C@@H](CC(C)C)C(=O)N[C@@H](CC(=O)O)C(=O)N[C@@H](CC(N)=O)C(=O)N[C@@H](CC(C)C)C(=O)N[C@@H](C)C(=O)N[C@H](C)C(=O)N[C@@H](CCCNC(=N)N)C(=O)N[C@@H](CC(=O)O)C(=O)N[C@@H](Cc1ccccc1)C(=O)N[C@H](C(=O)N[C@@H](CC(N)=O)C(=O)N[C@@H](Cc1c[nH]c2ccccc12)C(=O)N[C@@H](CC(C)C)C(=O)N[C@H](C(=O)N[C@@H](CCC(N)=O)C(=O)N[C@H](C(=O)N[C@@H](CCCCN)C(N)=O)[C@@H](C)O)[C@@H](C)CC)[C@@H](C)CC)[C@@H](C)CC)[C@@H](C)O (stereo not given in full)	> 71	> 1000 nM	14 nM	64	–	inactive
